# Source: patent US20090176741A1, “MODULATION OF THE IMMUNE SYSTEM BY INOSITOL PHOSPHOLIPIDS” (priority 2006, published 2009)
# Columns and labels:
# TNBS colitis = TNBS colitis model, intraperitoneal PI; assay type: in vivo, mice
# Procedure: Colitis was induced as described previously (Scheiffele, F. and Fuss, I J., 2001, Curr. Protocols Immunol. 15.19.1-15.19.14). In short, on day-7 SJL mice were sensitized epicutaneously with 150 μl 2.5% 2,4,6-trinitrobenzene sulfonic acid (TNBS; Sigma) in 50% ethanol. On day 0, mice were challenged, under anesthesia of isoflurane gas, by rectal administration of 150 μl 2.5% TNBS in 50% ethanol. Negative control mice were challenged with 50% ethanol only. […] Positive (TNBS treated) and negative (ethanol treated) control mice were treated with an intraperitoneal (i.p.) injection of 150 μl of saline at 0, 12, 24, 36, 48 and 60 h. The PI treatment group was treated with […] of 5 mg/ml PI suspended in saline at the same time points. Mice were weighted at 0, 12, 24, 36, 48 and 60 h and were sacrificed at 60 h. Colonic tissue was folded into Swiss rolls, fixed in 4% natural buffered formalin solution and embedded in paraffin. Sections of 5 μm thickness were generated, stained with hematoxylin (Vector Laboratories) and eosin (Sigma) and analyzed by microscopy. Histology was quantified by scoring each separate field of view at a 4× magnification from distal to proximal by means of a previously described TNBS scoring system (Scheiffele, F. and Fuss, I J., 2001, Curr. Protocols Immunol. 15.19.1-15.19.14). Single cell suspensions were made of iliac lymph nodes (ILNs) and mesenteric lymph nodes (MLNs) by sieving trough an 80 μm filter and subsequently lymphocytes were cultured and stimulated with 2 μg/ml anti-CD3 and 2 μg/ml anti-CD28 antibodies. After 48 h of culture the supernatant was collected and release of the pro-inflammatory cytokines IFN-γ and IL-17 (Zhang, Z. et al., 2006, Inflamm. Bowel Dis., 12:382-388) and the anti-inflammatory cytokine IL-10 were measured by means of ELISA (IL-17) or CBA (IFN-γ and IL-10).
# [1] = Observation after intravenous PI; assay type: in vivo, mice; settings: 200 μl of PI 2 mg/ml (400 μg) intravenously, 3 hour observation period
# Description: It will be recognized by those skilled in the art that the optimal quantity and spacing of individual dosages for achieving the therapeutic effects of the pharmaceutical composition, food item or food supplement described herein may easily be determined by the skilled person. They will be determined by the nature and extent of the condition being treated, as well as by the form, route and site of administration, and the particular individual undergoing treatment, and that such optima can be determined by conventional techniques. Typically, the treatment will involve the administration of inositol phospholipid in amount of approximately 0.001 to 1 gram , preferably 0.005 to 0.5 gram, more preferably 0.01 to 0.1 gram per kilogram of body weight per 24 hours. It will also be appreciated by those skilled in the art that the optimal dosage regimen, i.e. the number of doses, can be ascertained using conventional course of treatment determination tests well known in the art. […] Generally speaking, a therapeutic dosing regimen will involve the administration of the selected dosage formulation comprising an inositol phospholipid, e.g. a PI aerosol spray, at least once daily, preferably one to four times daily, until the symptoms have subsided. Or given in times of remission, in order to prevent a disease flare-up (exacerbation). […]
# [2] = system: activated peripheral blood cells; settings: Caselli et al. 1992; cited from earlier work
# T cells [3] = assay: T cell activation measured by IL-2 cytokine production; assay type: cell-based; settings: for T cell activation measured by IL-2 cytokine production: PMA + calcium ionophore A23187
# Procedure: A CD1d transfected epithelial cell line T84D was pulsed with alpha-GalactosylCeramide and co-cultured with PI at different concentrations. NKT cell activation was determined by measurement of IL-2 present in the supernatants. FIG. 2: Phosphatidyl-inositol but not myo-inositol blocks CD1d dependent NKT cell activation. A CD1d transfected epithelial cell line T84D was pulsed with a GalactosylCeramide and co-cultured with either solvent control, PI or myo-inositol. NKT cell activation was determined by measurement of IL-2 present in the supernatants. FIG. 3: Differential effect of PI and PS on cellular viability and immune suppression. T cells were suspended at 10^6 cells/ml in 24-wells plates (1 ml suspension per well). Cells were either left untreated (PMA 0 Cal 0) or activated with 5 ng/ml PMA +0.1 μg/ml calcium ionophore A23187 (PMA 5 ng/ml Cal 0.1 ug/ml) in the presence of PI or PS at the indicated concentrations (expressed in pg/ml). Panel A: Following a 24 hour incubation period in the presence of the indicated lipids and stimuli cellular viability was measured using flow cytometric detection of 7-AAD stained cells. […] FIG. 4: IPL strongly affects early survival in oxazolone colitis model. For experimental details see Example 2A. FIG. 5: Suppression of IL-2 production by intestinal T cells upon IPL intrarectal treatment of oxazolone-colitis mice. Mice were treated with saline (group A) or PI (group B) twenty minutes prior to challenge with oxazolone to induce colitis. Mice were sacrificed and intestinal T cells were analyzed for IL-2 production upon stimulation by aCD3/aCD28 during a period of 48 hours (panel A) or 72 hours (panel B). ALN=axillair LN; MLN=[…] LN; ILN=iliacal LN. For further details see Example 2A. FIG. 6: Treatment with IPL (non-liposomal aerosol) prevents the typical histo-pathological changes that are associated with an asthma mouse model. For experimental details see Example 2B. FIG. 7: Treatment with PI (aerosol) prevents the eosinophilia that is associated with an asthma mouse model. For experimental details see Example 2B. FIG. 8: effects of intraperitoneal injection of PI in the TNBS colitis model. […] B The percentage of weight during TNBS colitis is shown. Each dot represents the mean of weights of each group per 0.5 day. Error bars indicate the standard error of the mean. Asterisks indicate significant differences (p<0.05) between TNBS treated mice that received i.p. injections of PI and saline. […] C Histopathology of the whole colon was assessed by blindly scoring each separate field of view at a 4× magnification by means of a TNBS score. […]
# OVA-induced asthma = assay: OVA asthma model, intra-tracheal PI; assay type: in vivo, mice; settings: PI intra-tracheally before OVA aerosol challenge
# Procedure: On days one and eight male wildtype Balb/c mice (Charles Rivers) of 7-10 weeks old were sensitized by intra-peritoneal (i.p.) injection of 20 μg of OVA (Sigma), emulsified in 2.25 mg of alum (AlumImuject; Pierce). On days 15, 16 and 17 mice were sedated and received 80 μl of one of three solutions of PI (0 μg/ml, 200 μg/ml or 2 mg/ml) intra-tracheally (i.t). Subsequently the mice were challenged by 20 minutes of inhalation exposure to 60 μl of aerosols containing OVA (1% in saline). All three groups contained 8 mice. Mice were sacrificed at day 18.
# Lungs were flushed with 3 ml saline and the cells in this Broncho Alveolar Lavage (BAL) were identified and quantified through FACS analysis. Subsequently the lungs were freeze-fixed, cut into 5 μm tissue sections and stained with May-Grunwald-Giemsa (MGG). The stained sections were examined for the presence of inflammatory cell infiltration such as eosinophils.
# T cells [4] = assay: Cellular viability of T cells (flow cytometric 7-AAD detection); assay type: cell-based; settings: FIG. 3A
# Procedure: (§1) A CD1d transfected epithelial cell line T84D was pulsed with alpha-GalactosylCeramide and co-cultured with PI at different concentrations. NKT cell activation was determined by measurement of IL-2 present in the supernatants. FIG. 2: Phosphatidyl-inositol but not myo-inositol blocks CD1d dependent NKT cell activation. A CD1d transfected epithelial cell line T84D was pulsed with a GalactosylCeramide and co-cultured with either solvent control, PI or myo-inositol. NKT cell activation was determined by measurement of IL-2 present in the supernatants. FIG. 3: Differential effect of PI and PS on cellular viability and immune suppression. T cells were suspended at 10^6 cells/ml in 24-wells plates (1 ml suspension per well). Cells were either left untreated (PMA 0 Cal 0) or activated with 5 ng/ml PMA +0.1 μg/ml calcium ionophore A23187 (PMA 5 ng/ml Cal 0.1 ug/ml) in the presence of PI or PS at the indicated concentrations (expressed in pg/ml). Panel A: Following a 24 hour incubation period in the presence of the indicated lipids and stimuli cellular viability was measured using flow cytometric detection of 7-AAD stained cells. […] FIG. 4: IPL strongly affects early survival in oxazolone colitis model. For experimental details see Example 2A. FIG. 5: Suppression of IL-2 production by intestinal T cells upon IPL intrarectal treatment of oxazolone-colitis mice. Mice were treated with saline (group A) or PI (group B) twenty minutes prior to challenge with oxazolone to induce colitis. Mice were sacrificed and intestinal T cells were analyzed for IL-2 production upon stimulation by aCD3/aCD28 during a period of 48 hours (panel A) or 72 hours (panel B). ALN=axillair LN; MLN=mediastinal LN; ILN=iliacal LN. For further details see Example 2A. FIG. 6: Treatment with IPL (non-liposomal aerosol) prevents the typical histo-pathological changes that are associated with an asthma mouse model. For experimental details see Example 2B. […] C Histopathology of the whole colon was assessed by blindly scoring each separate field of view at a 4× magnification by means of a TNBS score. […]
# oxazolone colitis = assay: Oxazolone colitis model, intra-rectal PI; assay type: in vivo, mice
# Procedure: On day 0 male wild type black/6 mice (Charles Rivers) of 7-10 weeks old were sensitized epicutaneously with 150 μl 3% 4-ethoxymeyhylene-2-phenyl-oxazolin-5-one (oxazolone; Sigma) in 100% ethanol. At day 5, mice were challenged, under anesthesia of ketamine (80 mg/kg) and xylazine (10 mg/kg), by rectal administration of 100 μl 2% oxazolone in aqueous ethanol (50%). Twenty minutes prior to challenge mice were treated intra-rectally with 100 μl saline (control) or PI (2 mg/ml). All […] groups contained 8 mice. Mice were weighted at day 5, 6, 7, and 8 and were sacrificed at day 8.
# Colonic tissue was fixed with 4% natural buffered formalin solution, embedded in paraffin, cut into 5μ tissue sections, and stained with hematoxylin and eosin (H&E). Using a score that has been described previously for oxazolone colitis (REF), the stained sections were examined for evidence of colitis. Spleen, axillary lymph nodes (ALN), mesenteric lymph nodes (MLN) and iliacal lymph nodes (ILN) were isolated and stimulated ex-vivo with either PBS (control) or with aCD3/aCD28 (100 μl of 2 μg/ml each) in IMDM medium. After 48 and 72 hours, the production of IL-2 was measured by means of ELISA (Beckton & Dickinson).
# [5] = system: DN32 cells (NKT cell line) co-cultured with CD1d transfected T84D cells; assay: CD1d-restricted NKT cell activation (T84D/DN32 co-culture, IL-2 ELISA); assay type: cell-based, murine; settings: for CD1d dependent NKT cell activation (IL-2 present in the supernatants): solvent control, PI or myo-inositol, FIG. 2
# Procedure: as §1, with “B).” for “B). ALN=axillair LN; MLN=mediastinal LN; ILN=iliacal LN. For further details see Example 2A. FIG. 6: Treatment with IPL (non-liposomal aerosol) prevents the typical histo-pathological changes that are associated with an asthma mouse model. For experimental details see Example 2B.”
# On day 0, T84D cells (a human epithelial cell line transfected with CD1d) were incubated overnight with a GalCer (10 mg/ml). […] Supernatants were collected and IL-2 cytokine production by DN32 (reflecting T cell activation) was determined by means of ELISA.
# [6] = anti-CD3/anti-CD28 re-stimulation, 48 h, vs saline treated group, p<0.05, FIG. 8D
# [7] = 24 hour incubation, untreated or 5 ng/ml PMA + 0.1 μg/ml A23187
compound,measurement,setting,value
phosphatidyl inositol [PI],"general appearance (fur, behavior)","TNBS colitis; PI 5 mg/ml i.p. every 12 h vs saline, FIG. 8A",appeared less diseased
same,weight loss,"TNBS colitis; PI i.p. vs control saline treatment, FIG. 8B",dramatic reduction in weight loss
same,start of weight recovery,"TNBS colitis; PI i.p., saline treated mice did not re-gain weight, FIG. 8B",1.5 days
same,IL-10 production,"TNBS colitis; anti-CD3/anti-CD28 re-stimulation, 48 h, vs saline treated group, FIG. 8D",no difference
same,IFN-γ production by MLNs,TNBS colitis; [6],significantly less production
same,IL-17 production by ILNs and MLNs,TNBS colitis; [6],significantly less production
same,colon histology (TNBS score),"TNBS colitis; day 3, field of view number 5, FIG. 8C",near normal histology
same,symptoms or adverse signs,[1],did not show any symptoms or adverse signs
same,DNA synthesis in activated peripheral blood cells,[2],only partially effective
same,T cell activation measured by IL-2 cytokine production,T cells [3]; FIG. 3B,inhibitory effect
same,reversibility of the suppressive effect,T cells [3]; data not shown,reversible
same,T cell activation,"T cells [3]; phorbol ester and calcium ionophore, or stimulation of CD3 and CD28, FIG. 3B",directly inhibit
same,histopathological changes of the lungs,OVA-induced asthma; FIG. 6,reduces
same,influx of eosinophils (BAL),OVA-induced asthma; FIG. 7,strongly inhibits
same,cellular viability,T cells [4]; [7],does not significantly affect cellular viability
same,cellular viability,T cells [4]; up to the highest dose tested (100 μg/ml),does not affect cellular viability
same,weight loss,oxazolone colitis; 100 μl PI 2 mg/ml intra-rectally 20 min prior to oxazolone challenge,diminished weight loss
same,survival,"oxazolone colitis; 100 μl PI 2 mg/ml intra-rectally 20 min prior to oxazolone challenge, FIG. 4",increased survival
same,IL-2 production upon ex-vivo stimulation of intestinal T cells,"oxazolone colitis; aCD3/aCD28 stimulation, 48 and 72 hours, FIG. 5",suppressed
same,NKT cell activation (IL-2 present in the supernatants),"[5]; T84D pulsed with alpha-GalactosylCeramide, PI at different concentrations, FIG. 1",Dose-dependent inhibition
same,CD1d dependent NKT cell activation (IL-2 present in the supernatants),[5],blocks
"O[C@H]1[C@H](O)[C@@H](O)[C@H](O)[C@@H](O)[C@H]1O [myo-inositol, reference compound]",CD1d dependent NKT cell activation (IL-2 present in the supernatants),[5],no significant suppressive effect
"phosphatidyl serine [PS, reference compound]",DNA synthesis in activated peripheral blood cells,[2],inhibition
same,T cell activation measured by IL-2 cytokine production,T cells [3]; FIG. 3B,stimulatory effect
same,cellular viability,T cells [4]; [7],toxic for activated cells in a dose-dependent manner
